# Data: PMC12254355 (Nature Communications, 2025)
# Ends that are not written are not given here.
# How the values were obtained:
# E. coli ATCC 11775 = conditions: ATCC 11775, 24 h
# E. coli AIC221 = conditions: AIC221, 24 h
# K. pneumoniae ATCC 13883 = conditions: ATCC 13883, 24 h
# [1] = test system: E. faecium ATCC 700221 - VRE; conditions: ATCC 700221, 24 h
# HEK293T cells = conditions: for CC50 vs HEK293T cells (source data of Figure 4a): 24 h
# human red blood cells = conditions: pH 7.4
# A. baumannii ATCC 19606 = conditions: ATCC 19606, 24 h
# P. aeruginosa PAO1 = conditions: PAO1, 24 h
# P. aeruginosa PA14 = conditions: PA14, 24 h
# S. aureus ATCC 12600 = conditions: ATCC 12600, 24 h
Sequence,"Minimal Inhibitory Concentration, E. coli ATCC 11775 (-) (E. coli ATCC 11775) [µmol/L]","Minimal Inhibitory Concentration, E. coli AIC221 (-) (E. coli AIC221) [µmol/L]","Minimal Inhibitory Concentration, K. pneumoniae ATCC 13883 (-) (K. pneumoniae ATCC 13883) [µmol/L]","Minimal Inhibitory Concentration, E. faecium ATCC 700221 - VRE (+) [1] [µmol/L]",SIcytotoxicity (HEK293T cells),CC50 vs HEK293T cells (source data of Figure 4a) (HEK293T cells) [µM],HC50 (human red blood cells),"Minimal Inhibitory Concentration, A. baumannii ATCC 19606 (-) (A. baumannii ATCC 19606) [µmol/L]","Minimal Inhibitory Concentration, P. aeruginosa PAO1 (-) (P. aeruginosa PAO1) [µmol/L]","Minimal Inhibitory Concentration, P. aeruginosa PA14 (-) (P. aeruginosa PA14) [µmol/L]","Minimal Inhibitory Concentration, S. aureus ATCC 12600 (+) (S. aureus ATCC 12600) [µmol/L]",CC50 vs HEK293T cells (HEK293T cells) [µM]
KFSVFSKILRSIAKVFKGVGKVRK [Arachnoserver-27],32,8,4,8,2.0,7.976,24.2,,,,,
KIKWFKTMKSLAKFLAK [Arachnoserver-33],8,4,4,32,8.0,,144.1,8,32,8,,
KIKWLKAMKSIAKFIAKK [Arachnoserver-5],2,2,2,8,7.0,13.96,46.7,8,4,2,,
KLKKLRKWIYRIV [UniprotKB-8],16,,64,16,3.5,27.64,636.4,32,,,,
KLLKIGLKSFARVLKKVL [UniprotKB-1],8,4,,,2.5,10.13,34.9,,8,8,16,10
KNKRFIRNLRSNLYQKIIKSTKSLL [Arachnoserver-9],16,8,16,16,2.9,23.56,4947.0,32,16,16,,
KNKRFIRNLRSNLYQKIIKSTKSLL [UniprotKB-14],32,8,32,32,5.7,45.94,7.733e+045,,32,32,,
KRFIRNLRSNLYQKIIKSTKSLLDLREKI [Arachnoserver-17],64,8,4,,4.1,16.47,280.5,,,,,
KWLKAMKSIAKFIAKKQMKKHL [Arachnoserver-32],,64,16,4,1.9,7.568,19.2,,8,16,,8
KYRRGVSPWLKKELVRLHNNLRSKVAGGK [Arachnoserver-31],8,4,4,16,3.2,12.67,1392.0,,,64,,13
LKLKSILGKLGVIL [UniprotKB-4],,,64,,0.7,10.49,3.938e+054,64,,,,10
RKFKWGKLFSTAKKLYKKGKKLSKNKNFKKALK [UniprotKB-12],32,2,,32,11.9,23.71,604.3,64,4,4,,
RKFKWGSFKKILSAGKKLFKKAKKLSK [Arachnoserver-2],8,1,,8,9.9,9.929,108.1,32,4,4,,10
RKFKWGSFKKILSAGKKLFKKAKKLSKNKNFKKALK [Arachnoserver-6],32,4,,8,1.3,5.173,12.1,64,4,4,,5
RKFNWGKLFKSAKKLYKTGKKLSKNKNVRKALKFGK [Arachnoserver-7],8,1,64,8,6.8,6.812,7.0,8,8,4,,7
RRVKRFKKFFMKLKKSVKKRVMKFFK [UniprotKB-5],32,32,,8,1.1,8.885,103.8,64,8,8,,9
RRVKRFKKFFRKLKKSVKKRAKEFFK [ISOB-1],16,8,,16,28.9,,2001.0,64,4,8,64,
VNSFKIGGFIKKLWRSKLAKKLRAK [UniprotKB-19],64,16,,4,10.2,40.64,625.9,64,8,16,,
